Assay results as given in ChEMBL document CHEMBL1201862, “PubChem BioAssay data set” (2004).
The source made the active and inactive calls.

How the values were obtained:
Assay type in all cases: functional
[1] = target: T1, Tyrosine-protein kinase receptor TYRO3 (Homo sapiens, UniProt Q06418);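 also: TYRO3 value obtained as one member of a kinome-wide profiling panel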
T1 sequence (Q06418 whole entry): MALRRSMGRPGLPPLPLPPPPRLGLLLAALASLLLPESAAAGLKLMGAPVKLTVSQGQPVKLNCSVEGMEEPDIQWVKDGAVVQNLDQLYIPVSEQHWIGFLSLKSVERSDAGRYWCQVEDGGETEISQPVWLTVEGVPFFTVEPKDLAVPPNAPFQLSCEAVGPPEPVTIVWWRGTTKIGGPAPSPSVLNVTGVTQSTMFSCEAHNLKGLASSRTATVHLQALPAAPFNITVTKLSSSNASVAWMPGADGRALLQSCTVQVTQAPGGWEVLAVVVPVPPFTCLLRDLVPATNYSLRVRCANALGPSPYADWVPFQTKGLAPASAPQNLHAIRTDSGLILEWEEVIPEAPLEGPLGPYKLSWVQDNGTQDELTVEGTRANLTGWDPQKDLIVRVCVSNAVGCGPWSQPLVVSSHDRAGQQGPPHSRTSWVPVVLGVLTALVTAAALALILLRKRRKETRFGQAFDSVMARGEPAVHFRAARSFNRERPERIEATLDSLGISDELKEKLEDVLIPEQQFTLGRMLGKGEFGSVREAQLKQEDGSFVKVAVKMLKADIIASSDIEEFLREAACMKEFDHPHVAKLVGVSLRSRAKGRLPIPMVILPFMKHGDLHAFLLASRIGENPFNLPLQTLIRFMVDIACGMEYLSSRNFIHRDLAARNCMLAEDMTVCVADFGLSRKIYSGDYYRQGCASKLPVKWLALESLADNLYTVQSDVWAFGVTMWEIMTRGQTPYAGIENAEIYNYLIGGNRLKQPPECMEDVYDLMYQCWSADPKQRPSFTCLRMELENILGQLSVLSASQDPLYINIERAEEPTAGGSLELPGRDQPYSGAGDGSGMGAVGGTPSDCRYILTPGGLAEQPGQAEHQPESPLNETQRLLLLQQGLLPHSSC

[2] = target: Cyclin-dependent kinase 8 (Homo sapiens, UniProt P49336); test: Navigating the Kinome. Panel member name: CDK8
Chain of Cyclin-dependent kinase 8 (P49336 whole entry): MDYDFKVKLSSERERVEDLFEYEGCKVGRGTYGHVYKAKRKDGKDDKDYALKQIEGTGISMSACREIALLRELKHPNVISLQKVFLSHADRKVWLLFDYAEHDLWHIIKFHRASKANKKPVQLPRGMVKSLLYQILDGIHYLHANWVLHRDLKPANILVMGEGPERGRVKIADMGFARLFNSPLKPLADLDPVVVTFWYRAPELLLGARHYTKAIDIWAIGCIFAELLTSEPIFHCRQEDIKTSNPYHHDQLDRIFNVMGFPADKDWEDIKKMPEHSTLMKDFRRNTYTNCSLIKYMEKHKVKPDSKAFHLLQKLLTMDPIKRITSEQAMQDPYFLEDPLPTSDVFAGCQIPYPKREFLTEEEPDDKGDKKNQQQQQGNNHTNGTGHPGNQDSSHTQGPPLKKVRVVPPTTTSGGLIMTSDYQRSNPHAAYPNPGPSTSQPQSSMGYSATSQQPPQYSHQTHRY

[3] = target: T2, cAMP-dependent protein kinase catalytic subunit PRKX (Homo sapiens, UniProt P51817)
T2 sequence (P51817 whole entry): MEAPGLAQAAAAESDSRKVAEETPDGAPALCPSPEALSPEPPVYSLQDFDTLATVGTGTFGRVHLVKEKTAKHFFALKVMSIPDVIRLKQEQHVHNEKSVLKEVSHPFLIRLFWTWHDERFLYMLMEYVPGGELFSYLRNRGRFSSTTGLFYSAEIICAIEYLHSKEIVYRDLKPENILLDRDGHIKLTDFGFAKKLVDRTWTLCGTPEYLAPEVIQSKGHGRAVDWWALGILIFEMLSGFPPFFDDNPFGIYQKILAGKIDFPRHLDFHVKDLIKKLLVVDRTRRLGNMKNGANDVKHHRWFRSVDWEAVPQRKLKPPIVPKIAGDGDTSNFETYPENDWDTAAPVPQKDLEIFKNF

[4] = target: Death-associated protein kinase 3 (Homo sapiens, UniProt O43293);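 also: measured as one member of a kinome-wide profiling panel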
[5] = target: Leukocyte tyrosine kinase receptor (Homo sapiens, UniProt P29376); test: Navigating the Kinome. Panel member name: LTK
Chain of Leukocyte tyrosine kinase receptor (P29376 whole entry): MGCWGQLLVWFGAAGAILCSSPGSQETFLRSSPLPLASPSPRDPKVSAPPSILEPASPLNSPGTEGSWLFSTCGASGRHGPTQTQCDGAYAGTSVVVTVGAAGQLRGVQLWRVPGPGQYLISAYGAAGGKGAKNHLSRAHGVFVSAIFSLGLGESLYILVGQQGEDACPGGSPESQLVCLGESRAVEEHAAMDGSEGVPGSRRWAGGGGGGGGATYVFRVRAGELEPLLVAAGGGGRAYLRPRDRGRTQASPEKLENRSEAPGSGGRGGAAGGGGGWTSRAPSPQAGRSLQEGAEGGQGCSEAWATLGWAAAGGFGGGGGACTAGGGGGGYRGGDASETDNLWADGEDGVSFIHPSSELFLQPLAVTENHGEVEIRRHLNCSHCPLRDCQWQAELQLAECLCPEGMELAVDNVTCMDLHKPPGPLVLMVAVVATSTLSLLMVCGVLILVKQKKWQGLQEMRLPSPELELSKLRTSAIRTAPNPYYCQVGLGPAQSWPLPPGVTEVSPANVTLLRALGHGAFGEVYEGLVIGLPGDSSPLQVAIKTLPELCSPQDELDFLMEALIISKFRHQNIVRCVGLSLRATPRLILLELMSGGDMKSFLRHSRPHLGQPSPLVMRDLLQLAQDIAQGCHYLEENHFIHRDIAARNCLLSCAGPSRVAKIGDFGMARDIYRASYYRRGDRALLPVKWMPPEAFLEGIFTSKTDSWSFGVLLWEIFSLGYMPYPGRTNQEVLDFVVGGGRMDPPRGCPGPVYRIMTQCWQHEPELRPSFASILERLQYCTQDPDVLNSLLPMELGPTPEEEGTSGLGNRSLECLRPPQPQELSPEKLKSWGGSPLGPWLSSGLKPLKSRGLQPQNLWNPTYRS

[6] = target: Platelet-derived growth factor receptor alpha (Homo sapiens, UniProt P16234); test: Navigating the Kinome. Panel member name: PDGFRA
Chain of Platelet-derived growth factor receptor alpha (P16234 whole entry): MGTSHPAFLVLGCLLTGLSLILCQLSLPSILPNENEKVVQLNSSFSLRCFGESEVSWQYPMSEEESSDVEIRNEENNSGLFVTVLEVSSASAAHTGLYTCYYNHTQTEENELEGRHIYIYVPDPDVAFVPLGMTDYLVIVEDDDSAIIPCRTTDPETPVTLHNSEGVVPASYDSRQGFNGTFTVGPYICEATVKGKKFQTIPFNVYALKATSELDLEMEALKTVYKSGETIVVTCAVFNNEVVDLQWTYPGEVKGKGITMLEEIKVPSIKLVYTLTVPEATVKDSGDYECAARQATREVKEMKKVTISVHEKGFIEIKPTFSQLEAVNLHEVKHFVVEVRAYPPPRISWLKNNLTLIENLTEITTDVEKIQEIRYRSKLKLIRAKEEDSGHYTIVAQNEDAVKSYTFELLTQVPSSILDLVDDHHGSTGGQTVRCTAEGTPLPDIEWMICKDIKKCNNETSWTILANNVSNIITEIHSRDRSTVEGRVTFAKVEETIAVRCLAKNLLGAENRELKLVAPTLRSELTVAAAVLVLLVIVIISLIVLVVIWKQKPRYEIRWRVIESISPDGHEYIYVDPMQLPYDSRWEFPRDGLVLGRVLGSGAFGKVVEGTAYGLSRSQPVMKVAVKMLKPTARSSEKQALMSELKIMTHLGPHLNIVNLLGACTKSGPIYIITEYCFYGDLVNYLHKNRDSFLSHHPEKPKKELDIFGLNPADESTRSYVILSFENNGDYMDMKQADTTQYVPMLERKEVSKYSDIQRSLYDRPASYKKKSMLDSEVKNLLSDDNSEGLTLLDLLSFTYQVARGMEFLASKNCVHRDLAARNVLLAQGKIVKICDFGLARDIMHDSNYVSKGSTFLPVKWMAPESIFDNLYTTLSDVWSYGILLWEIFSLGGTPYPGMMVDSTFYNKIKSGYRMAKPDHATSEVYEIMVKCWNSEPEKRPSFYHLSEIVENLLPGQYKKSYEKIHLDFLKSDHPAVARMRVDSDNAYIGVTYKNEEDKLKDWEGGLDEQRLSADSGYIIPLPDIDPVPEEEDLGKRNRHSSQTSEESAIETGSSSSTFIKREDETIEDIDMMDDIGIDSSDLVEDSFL

[7] = target: ALK tyrosine kinase receptor (Homo sapiens, UniProt Q9UM73);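 also: ALK tested as one member of a kinase panel screen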
Chain of ALK tyrosine kinase receptor (Q9UM73 whole entry): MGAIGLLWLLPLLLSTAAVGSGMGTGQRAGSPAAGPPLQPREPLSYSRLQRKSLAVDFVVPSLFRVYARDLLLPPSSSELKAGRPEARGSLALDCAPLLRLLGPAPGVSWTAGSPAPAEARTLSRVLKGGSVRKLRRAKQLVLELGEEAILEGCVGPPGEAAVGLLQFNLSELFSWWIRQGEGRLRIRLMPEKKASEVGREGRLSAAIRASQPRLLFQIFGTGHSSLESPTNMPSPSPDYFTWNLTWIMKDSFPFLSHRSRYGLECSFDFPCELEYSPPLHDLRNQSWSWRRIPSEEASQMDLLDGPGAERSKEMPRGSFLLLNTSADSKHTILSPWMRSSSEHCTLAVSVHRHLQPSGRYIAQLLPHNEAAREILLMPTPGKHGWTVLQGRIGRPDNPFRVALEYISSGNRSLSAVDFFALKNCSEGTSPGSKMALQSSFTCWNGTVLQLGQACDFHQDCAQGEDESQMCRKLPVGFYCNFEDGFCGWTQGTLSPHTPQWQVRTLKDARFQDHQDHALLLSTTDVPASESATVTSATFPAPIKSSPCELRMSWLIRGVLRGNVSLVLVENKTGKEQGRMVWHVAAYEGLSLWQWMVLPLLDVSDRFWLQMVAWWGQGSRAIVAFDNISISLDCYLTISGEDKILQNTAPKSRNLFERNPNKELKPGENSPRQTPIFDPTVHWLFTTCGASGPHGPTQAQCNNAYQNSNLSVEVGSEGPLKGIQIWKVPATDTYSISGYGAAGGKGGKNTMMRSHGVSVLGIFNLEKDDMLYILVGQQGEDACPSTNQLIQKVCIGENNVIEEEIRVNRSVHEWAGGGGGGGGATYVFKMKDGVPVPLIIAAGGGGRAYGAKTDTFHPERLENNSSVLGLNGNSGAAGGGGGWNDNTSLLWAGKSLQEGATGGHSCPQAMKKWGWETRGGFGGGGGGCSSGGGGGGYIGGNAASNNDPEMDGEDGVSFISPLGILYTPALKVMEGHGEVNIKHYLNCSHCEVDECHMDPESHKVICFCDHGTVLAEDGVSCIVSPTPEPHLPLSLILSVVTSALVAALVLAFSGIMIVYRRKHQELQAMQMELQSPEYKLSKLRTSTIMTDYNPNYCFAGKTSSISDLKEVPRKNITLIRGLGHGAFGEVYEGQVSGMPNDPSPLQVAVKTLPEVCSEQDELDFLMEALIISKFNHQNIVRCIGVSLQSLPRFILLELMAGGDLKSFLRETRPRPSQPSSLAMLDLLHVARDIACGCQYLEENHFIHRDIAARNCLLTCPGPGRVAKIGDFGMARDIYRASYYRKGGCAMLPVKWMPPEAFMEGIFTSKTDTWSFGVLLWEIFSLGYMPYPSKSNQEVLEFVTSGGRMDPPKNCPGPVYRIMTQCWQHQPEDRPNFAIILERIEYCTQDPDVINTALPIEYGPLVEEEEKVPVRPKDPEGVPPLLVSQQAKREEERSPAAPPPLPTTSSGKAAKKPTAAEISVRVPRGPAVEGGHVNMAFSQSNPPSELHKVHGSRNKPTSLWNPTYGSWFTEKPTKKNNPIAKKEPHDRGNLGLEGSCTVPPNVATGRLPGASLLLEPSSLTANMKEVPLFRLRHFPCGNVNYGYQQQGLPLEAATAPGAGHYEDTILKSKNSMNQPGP

[8] = target: Inhibitor of nuclear factor kappa-B kinase subunit epsilon (Homo sapiens, UniProt Q14164); test: Navigating the Kinome. Panel member name: IKBKE
[9] = target: cAMP-dependent protein kinase catalytic subunit alpha (Homo sapiens, UniProt P17612)
[10] = target: T3, Serine/threonine-protein kinase TAO1 (Homo sapiens, UniProt Q7L7X3)
T3 sequence (Q7L7X3 whole entry): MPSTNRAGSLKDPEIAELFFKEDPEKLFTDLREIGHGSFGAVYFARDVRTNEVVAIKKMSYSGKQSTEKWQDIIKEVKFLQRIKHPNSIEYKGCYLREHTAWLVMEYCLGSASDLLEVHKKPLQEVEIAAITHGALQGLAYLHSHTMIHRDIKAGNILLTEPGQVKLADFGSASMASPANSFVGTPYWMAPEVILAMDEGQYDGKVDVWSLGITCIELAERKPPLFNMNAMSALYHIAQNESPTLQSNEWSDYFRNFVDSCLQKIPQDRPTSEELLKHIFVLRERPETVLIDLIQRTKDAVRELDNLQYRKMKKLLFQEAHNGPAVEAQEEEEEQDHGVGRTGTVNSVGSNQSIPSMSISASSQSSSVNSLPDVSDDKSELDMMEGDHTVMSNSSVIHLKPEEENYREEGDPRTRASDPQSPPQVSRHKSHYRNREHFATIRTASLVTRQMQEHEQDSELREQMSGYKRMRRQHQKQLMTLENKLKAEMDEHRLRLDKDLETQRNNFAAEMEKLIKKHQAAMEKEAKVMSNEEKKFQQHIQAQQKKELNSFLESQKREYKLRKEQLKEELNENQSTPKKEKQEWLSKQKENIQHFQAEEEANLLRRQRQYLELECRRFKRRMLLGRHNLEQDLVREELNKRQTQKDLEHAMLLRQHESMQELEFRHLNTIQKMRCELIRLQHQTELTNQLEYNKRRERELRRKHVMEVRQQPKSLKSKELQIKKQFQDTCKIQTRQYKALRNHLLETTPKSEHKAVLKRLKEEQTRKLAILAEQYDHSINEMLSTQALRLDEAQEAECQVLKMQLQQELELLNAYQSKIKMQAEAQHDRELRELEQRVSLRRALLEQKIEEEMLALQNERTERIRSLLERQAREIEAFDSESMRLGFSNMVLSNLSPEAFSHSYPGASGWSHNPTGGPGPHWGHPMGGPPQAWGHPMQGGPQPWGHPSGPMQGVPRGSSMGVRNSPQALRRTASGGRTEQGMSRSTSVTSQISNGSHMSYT

[11] = target: Cyclin-dependent kinase 7 (Homo sapiens, UniProt P50613);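 also: value comes from a kinome-wide kinase profiling panel in which CDK7 is one member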
Chain of Cyclin-dependent kinase 7 (P50613 whole entry): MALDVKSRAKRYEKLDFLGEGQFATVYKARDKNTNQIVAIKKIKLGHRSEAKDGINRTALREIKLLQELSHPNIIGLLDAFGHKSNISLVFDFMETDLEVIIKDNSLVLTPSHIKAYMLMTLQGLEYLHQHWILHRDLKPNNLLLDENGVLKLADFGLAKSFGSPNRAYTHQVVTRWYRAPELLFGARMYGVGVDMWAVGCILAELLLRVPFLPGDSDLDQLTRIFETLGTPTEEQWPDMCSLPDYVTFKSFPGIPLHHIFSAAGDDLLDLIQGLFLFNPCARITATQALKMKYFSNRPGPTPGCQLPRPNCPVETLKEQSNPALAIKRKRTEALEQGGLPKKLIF

[12] = target: Glycogen synthase kinase-3 beta (Homo sapiens, UniProt P49841);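 also: value comes from a broad kinome profiling panel, with GSK3B as the panel member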
[13] = target: Dual specificity protein kinase CLK2 (Homo sapiens, UniProt P49760)
[14] = target: Glycogen synthase kinase-3 alpha (Homo sapiens, UniProt P49840);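 also: GSK3A result taken from a broad kinome-wide kinase panel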
Chain of Glycogen synthase kinase-3 alpha (P49840 whole entry): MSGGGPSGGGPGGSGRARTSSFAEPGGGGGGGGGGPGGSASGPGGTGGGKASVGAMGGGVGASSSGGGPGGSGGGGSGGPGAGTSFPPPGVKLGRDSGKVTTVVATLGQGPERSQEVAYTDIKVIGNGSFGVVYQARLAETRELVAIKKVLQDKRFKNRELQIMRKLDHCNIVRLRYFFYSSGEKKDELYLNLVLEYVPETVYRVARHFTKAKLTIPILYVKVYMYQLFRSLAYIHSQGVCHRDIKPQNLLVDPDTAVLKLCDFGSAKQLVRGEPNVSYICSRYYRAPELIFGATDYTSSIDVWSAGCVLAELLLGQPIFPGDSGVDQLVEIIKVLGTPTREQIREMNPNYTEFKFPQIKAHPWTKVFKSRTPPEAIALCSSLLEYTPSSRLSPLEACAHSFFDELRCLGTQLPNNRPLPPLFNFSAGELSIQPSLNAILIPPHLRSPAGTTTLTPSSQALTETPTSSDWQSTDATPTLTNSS

Ki [1] | Ki [2] | Ki [3] | Ki [5] | Ki [6] | Ki [7] | Ki [8] | Ki [9] | Ki [10] | Ki [11] | Ki [12] | Ki [13] | Ki [14] | SMILES | Ki [4]
25.1 µM (active) | 15.8 µM (active) | 20 µM (active) | 15.8 µM (active) | 63.1 µM (active) | 79.4 µM (active) | 31.6 µM (active) | 10 µM (active) | 79.4 µM (active) | 10 µM (active) | 12.6 µM (active) | 6.31 µM (active) | 12.6 µM (active) | CC(C)(O)c1cn(-c2ccc3[nH]ncc3c2)nn1 | 2 µM (active)
> 2 µM (inactive) |  | 0.00631 µM (active) |  |  | > 1.26 µM (inactive) |  | 0.0501 µM (active) | 0.316 µM (active) | 0.00398 µM (active) | 0.2 µM (active) | 0.00501 µM (active) | 0.158 µM (active) | NC1CCC(Nc2nccc(-c3c[nH]c4ncccc34)n2)CC1 (centres undefined) | 0.158 µM (active)
63.1 µM (active) | 6.31 µM (active) | 15.8 µM (active) | 20 µM (active) | 39.8 µM (active) | 79.4 µM (active) | 20 µM (active) | 5.01 µM (active) | 79.4 µM (active) | 12.6 µM (active) | 3.16 µM (active) | 1 µM (active) | 2.51 µM (active) | OCc1cc(-c2ccc3[nH]ncc3c2)on1 | 3.98 µM (active)

SMILES | Ki [1] | Ki [2] | Ki [3] | Ki [5] | Ki [6] | Ki [7] | Ki [8] | Ki [9] | Ki [10] | Ki [11] | Ki [12] | Ki [13] | Ki [14] | Ki [4]
COC(C(=O)N1Cc2[nH]nc(NC(=O)c3ccc(N4CCN(C)CC4)cc3)c2C1)c1ccccc1 (centres undefined) | > 2.51 µM (inactive) | > 3.98 µM (inactive) | > 2.51 µM (inactive) | 0.0316 µM (active) | > 2 µM (inactive) |  |  |  |  |  |  |  |  | 0.794 µM (active)
